{"source": "the supplement of paper PMC10307832", "assay_in_all_cases": "relative viability (nuclei count vs DMSO), 5 days (fraction); higher = more cells survive", "key": {"[1]": {"compound": "C1COCCN1C2=NC(=NC3=C2OC4=C3C=CC=N4)C5=CC(=CC=C5)NC(=O)C6=CN=C(C=C6)N + Nc1ncn([C@H]2C[C@H](O)[C@@H](CO)O2)c(=O)n1 [Decitabine] (partner 2 µM)", "how_it_was_run": "(§1)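 Five library-drug doses in √10 steps were combined with a fixed anchor-drug dose, or a single drug was given alone, by pin tool to lung cancer cell lines in 1536-well plates the day after seeding. Nuclei were stained and counted after 5 days. Relative viability is the nuclei count in treated wells over that in vehicle wells, taken as the median of duplicate plates.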"}, "SGI-1776 + Palbociclib": {"compound": "CN1CCC(CNc2ccc3ncc(-c4cccc(OC(F)(F)F)c4)n3n2)CC1 [SGI-1776] + CC(=O)c1c(C)c2cnc(Nc3ccc(N4CCNCC4)cn3)nc2n(C2CCCC2)c1=O [Palbociclib] (partner 0.5 µM)", "how_it_was_run": "as §1"}, "SGI-1776 + OSI-027": {"compound": "CN1CCC(CNc2ccc3ncc(-c4cccc(OC(F)(F)F)c4)n3n2)CC1 [SGI-1776] + COc1cccc2cc(-c3nc([C@H]4CC[C@H](C(=O)O)CC4)n4ncnc(N)c34)[nH]c12 [OSI-027] (partner 0.5 µM)", "how_it_was_run": "as §1"}, "Entinostat + Olaparib": {"compound": "Nc1ccccc1NC(=O)c1ccc(CNC(=O)OCc2cccnc2)cc1 [Entinostat] + O=C(c1cc(Cc2n[nH]c(=O)c3ccccc23)ccc1F)N1CCN(C(=O)C2CC2)CC1 [Olaparib] (partner 8 µM)", "how_it_was_run": "as §1"}}, "data": [{"cell line": "UMC-11", "values": [{"measurement": "relative viability", "setting": "[1]; first compound 0.02 µM", "result": 0.582}, {"measurement": "relative viability", "setting": "[1]; first compound 0.06325 µM", "result": 0.537}, {"measurement": "relative viability", "setting": "[1]; first compound 0.2 µM", "result": 0.551}, {"measurement": "relative viability", "setting": "[1]; first compound 0.6325 µM", "result": 0.537}, {"measurement": "relative viability", "setting": "[1]; first compound 2 µM", "result": 0.573}, {"measurement": "relative viability", "setting": "SGI-1776 + Palbociclib; first compound 0.08 µM", "result": 0.366}, {"measurement": "relative viability", "setting": "SGI-1776 + Palbociclib; first compound 0.8 µM", "result": 0.338}, {"measurement": "relative viability", "setting": "SGI-1776 + Palbociclib; first compound 2.53 µM", "result": 0.378}, {"measurement": "relative viability", "setting": "SGI-1776 + Palbociclib; first compound 8 µM", "result": 0.312}, {"measurement": "relative viability", "setting": "SGI-1776 + OSI-027; first compound 0.08 µM", "result": 0.493}, {"measurement": "relative viability", "setting": "SGI-1776 + OSI-027; first compound 0.8 µM", "result": 0.466}, {"measurement": "relative viability", "setting": "SGI-1776 + OSI-027; first compound 2.53 µM", "result": 0.396}, {"measurement": "relative viability", "setting": "SGI-1776 + OSI-027; first compound 8 µM", "result": 0.278}, {"measurement": "relative viability", "setting": "Entinostat + Olaparib; first compound 0.02 µM", "result": 0.376}, {"measurement": "relative viability", "setting": "Entinostat + Olaparib; first compound 0.06325 µM", "result": 0.345}, {"measurement": "relative viability", "setting": "Entinostat + Olaparib; first compound 0.2 µM", "result": 0.242}, {"measurement": "relative viability", "setting": "Entinostat + Olaparib; first compound 0.6325 µM", "result": 0.116}, {"measurement": "relative viability", "setting": "Entinostat + Olaparib; first compound 2 µM", "result": 0.0922}]}]}
